Measurements published in patent publication US9902728B2, “Pyrrolo and pyrazolopyrimidines as ubiquitin-specific protease 7 inhibitors” (Forma Therapeutics, Inc., priority 2014, dated 2018).

biological target: T1, USP7 (Homo sapiens, UniProt Q93009); assay: USP7 Assay A (Ubitquin-Rhodamine 110 Assay); assay type: biochemical; conditions: USP7 activity in USP7 assay A and B (table does not say which assay per compound); read-out: USP7_IC50
T1 construct: USP7, construct USP7 (208-1102) 6*His, Viva Biotech; 6xHis (C); purchased Viva Biotech
T1 sequence (Q93009 208-1102): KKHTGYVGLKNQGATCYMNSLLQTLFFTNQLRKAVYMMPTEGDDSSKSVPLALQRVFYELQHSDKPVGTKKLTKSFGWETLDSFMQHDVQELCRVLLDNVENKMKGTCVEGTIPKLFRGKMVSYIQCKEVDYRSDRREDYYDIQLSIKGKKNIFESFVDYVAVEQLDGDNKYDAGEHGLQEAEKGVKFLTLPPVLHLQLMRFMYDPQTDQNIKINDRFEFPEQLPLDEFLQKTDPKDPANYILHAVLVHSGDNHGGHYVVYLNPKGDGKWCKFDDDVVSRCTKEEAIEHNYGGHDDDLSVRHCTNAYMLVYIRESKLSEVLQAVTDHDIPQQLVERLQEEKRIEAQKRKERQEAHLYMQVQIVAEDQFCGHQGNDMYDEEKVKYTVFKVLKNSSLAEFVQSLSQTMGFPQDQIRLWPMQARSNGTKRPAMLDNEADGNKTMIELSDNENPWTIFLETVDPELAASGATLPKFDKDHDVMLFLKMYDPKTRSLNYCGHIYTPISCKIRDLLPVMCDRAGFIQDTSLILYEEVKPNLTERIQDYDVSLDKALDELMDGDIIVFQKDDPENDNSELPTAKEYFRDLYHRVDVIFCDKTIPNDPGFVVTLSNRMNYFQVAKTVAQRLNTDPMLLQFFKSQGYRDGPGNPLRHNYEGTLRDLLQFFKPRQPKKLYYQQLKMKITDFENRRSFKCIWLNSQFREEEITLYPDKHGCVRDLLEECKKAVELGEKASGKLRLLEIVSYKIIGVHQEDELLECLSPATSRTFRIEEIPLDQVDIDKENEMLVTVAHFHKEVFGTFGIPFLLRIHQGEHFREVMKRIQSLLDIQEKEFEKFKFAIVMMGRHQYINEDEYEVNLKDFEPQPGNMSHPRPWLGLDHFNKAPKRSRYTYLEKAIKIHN
Procedure, shortened: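 Enzyme and compound sat together for 30 min before Ub-Rh110 was added, in buffer of 20 mM Tris-HCl (pH 8.0), 1 mM GSH, 0.03% BGG and 0.01% Triton X-100.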

Structure (SMILES)	IC50 [nM]
CN1CCN(c2cccc(-n3ncc4c(=O)n(CC5(O)CCN(C(=O)C[C@@H](C(F)F)n6cccn6)CC5)cnc43)c2)CC1 [Compound I-830]	200 to 1000
Cc1cnn([C@@H](CC(=O)N2CCC(O)(Cn3cnc4c(cnn4-c4ccc(F)cc4)c3=O)CC2)C(F)F)c1 (single isomer, unassigned) [Compound I-736]	> 10000
CC1(C(=O)N2CCC(O)(Cn3cnc4c(cnn4-c4ccc(-c5cnn(C6CC6)c5)cc4)c3=O)CC2)CC1 [Compound I-1723]	200 to 1000
CC1(C(=O)N2CCC(O)(Cn3cnc4c(cnn4-c4cccc(-n5ccc(F)n5)c4)c3=O)CC2)CC1 [Compound I-1042]	200 to 1000
CC1(C(=O)N2CCC(O)(Cn3cnc4c(cnn4-c4ccc(-c5cnn(C6CC6)c5)cc4)c3=O)CC2)CCC1 [Compound I-1720]	< 200
O=C(C[C@@H](C(F)F)n1ccc(F)n1)N1CCC(O)(Cn2cnc3c(ccn3-c3ccc(F)cc3)c2=O)CC1 [Compound I-1126]	< 200
CN[C@H]1CCN(c2ccc(-c3ccc(-n4ncc5c(=O)n(CC6(O)CCN(C(=O)C7CC7)CC6)cnc54)cc3)cc2)C1 [Compound I-689]	< 200
O=C(C[C@H](C(F)F)n1ccc(F)n1)N1CCC(O)(Cn2cnc3c(ccn3-c3ccc(F)cc3)c2=O)CC1 [Compound I-1125]	200 to 1000
C=CC(=O)N1CC[C@]1(C)C(=O)N1CCC(O)(Cn2cnc3c(cnn3-c3ccc(-c4ccccc4)cc3)c2=O)CC1 [Compound I-660]	200 to 1000
Cc1ncc(OC2CCC(C(=O)N3CCC(O)(Cn4cnc5c(cnn5-c5ccc(F)cc5)c4=O)CC3)CC2)cn1 (stereo not drawn) [Compound I-1022]	200 to 1000
O=C(c1ccc(F)cc1)N1CCC(O)(Cn2cnc3c(cnn3-c3ccc(N4CCC5(CC4)CC(CO)C5)cc3)c2=O)CC1 [Compound I-1740]	200 to 1000
Cn1ccc(NC2CCC(C(=O)N3CCC(O)(Cn4cnc5c(ccn5-c5ccc(F)cc5)c4=O)CC3)CC2)n1 (stereo not drawn) [Compound I-1041]	200 to 1000
Cc1ncc(C(=O)N2CCC(O)(Cn3cnc4c(cnn4-c4ccc(C5CC5)cc4)c3=O)CC2)o1 [Compound I-799]	200 to 1000
O=C(C1CCC(Oc2cccc(F)n2)CC1)N1CCC(O)(Cn2cnc3c(cnn3-c3ccccc3)c2=O)CC1 (stereo not drawn) [Compound I-742]	200 to 1000
CN1Cc2cn(-c3ccc(C(=O)N4CCC(O)(Cn5cnc6c(cnn6-c6ccc(F)cc6)c5=O)CC4)cc3)nc2C1 [Compound I-1001]	1000 to 10000
CC1(C(=O)N2CCC(O)(Cn3cnc4c(cnn4-c4ccc(N5CCC6(CC5)CC(F)(F)C6)cc4)c3=O)CC2)CCC1 [Compound I-1718]	< 200
C=CC(=O)N1CCC1C(=O)N1CCC(O)(Cn2cnc3c(cnn3-c3ccc(N4CCN(C)CC4)cc3)c2=O)CC1 (stereo not drawn) [Compound I-832]	< 200
Cc1snc(Cc2ccccc2)c1C(=O)N1CCC(O)(Cn2cnc3c(cnn3-c3ccc(F)cc3)c2=O)CC1 [Compound I-1110]	< 200
CC1(C(=O)N2CCC(O)(Cn3cnc4c(cnn4-c4ccc(-n5cc(C(F)(F)F)cn5)cc4)c3=O)CC2)CC1 [Compound I-1043]	200 to 1000
O=C(C1CC(Nc2ccccn2)C1)N1CCC(O)(Cn2cnc3c(cnn3-c3ccc(F)cc3)c2=O)CC1 (stereo not drawn) [Compound I-1034]	1000 to 10000
O=C(C[C@H](C(F)F)n1cc(Cl)cn1)N1CCC(O)(Cn2cnc3c(cnn3-c3ccc(F)cc3)c2=O)CC1 [Compound I-733]	200 to 1000
O=C(C1CC1)N1CCC(O)(Cn2cnc3c(cnn3-c3ccc(-c4cccc5oncc45)cc3)c2=O)CC1 [Compound I-1738]	1000 to 10000
CC(=O)N1C[C@@H]2C[C@H]1CN2c1ccc(-n2ncc3c(=O)n(CC4(O)CCN(C(=O)C5(C)CC5)CC4)cnc32)cc1 [Compound I-1747]	200 to 1000
O=C(C[C@@H](C(F)F)n1cc(Cl)cn1)N1CCC(O)(Cn2cnc3c(cnn3-c3ccc(F)cc3)c2=O)CC1 [Compound I-734]	> 10000
Cn1cc(OC2CCN(C(=O)N3CCC(O)(Cn4cnc5c(cnn5-c5ccc(F)cc5)c4=O)CC3)CC2)cn1 [Compound I-923]	1000 to 10000
O=C(c1ccc(-c2cnn3c2OCCC3)cc1)N1CCC(O)(Cn2cnc3c(cnn3-c3ccc(F)cc3)c2=O)CC1 [Compound I-551]	200 to 1000
Cc1cnn([C@H](CC(=O)N2CCC(O)(Cn3cnc4c(cnn4-c4ccc(F)cc4)c3=O)CC2)C(F)F)c1 [Compound I-735]	1000 to 10000

same assay, conditions: USP7 assay A and B (table does not say which assay per compound); Ubiquitin-Rhodamine 110 substrate; read-out: USP7_IC50

Structure (SMILES)	IC50 [nM]
CC(C)(C)n1ncc2c(=O)n(CC3(O)CCN(C(=O)c4ccc(Oc5ccccc5)cc4)CC3)cnc21 [Compound I-60]	> 10000

same assay, conditions: USP7 assay A and B (table does not say which assay per compound); read-out: USP7_IC50

Structure (SMILES)	IC50 [nM]
O=C(Nc1ccc(-n2ncc3c(=O)n(CC4(O)CCN(C(=O)C5CC5)CC4)cnc32)cc1)C1CCOCC1 [Compound I-1395]	1000 to 10000
COCCN(C)Cc1ccc(-n2ncc3c(=O)n(CC4(O)CCN(C(=O)C5CC5)CC4)cnc32)cc1 [Compound I-434]	1000 to 10000
CN(C)C(=O)N1CCC(O)(Cn2cnc3c(cnn3-c3ccc(N4CCN5CCCCC5C4)cc3)c2=O)CC1 (stereo not drawn) [Compound I-1525]	1000 to 10000
CN(C)S(=O)(=O)Nc1ccc(-n2ncc3c(=O)n(CC4(O)CCN(C(=O)C5CC5)CC4)cnc32)cc1 [Compound I-505]	1000 to 10000
O=C(C1CC1)N1CCC(O)(Cn2cnc3c(cnn3-c3ccc(CN4CCc5ccccc5C4)cc3)c2=O)CC1 [Compound I-437]	1000 to 10000
C[C@H](CC(=O)N1CCC(O)(Cn2cnc3c(cnn3-c3ccccc3)c2=O)CC1)n1cccc1 [Compound I-177]	< 200
CO[C@]1(C)CCN(c2cc(-n3ncc4c(=O)n(CC5(O)CCN(C(=O)C6CC6)CC5)cnc43)ccc2F)C1 [Compound I-972]	1000 to 10000
Cc1ccc(-n2ncc3c(=O)n(CC4(O)CCN(C(=O)c5ccc(Oc6ncccn6)cc5)CC4)cnc32)cc1 [Compound I-1063]	200 to 1000
O=C(N1CCC(O)(Cn2cnc3c(cnn3-c3ccccc3)c2=O)CC1)C12CC(C(F)(F)F)(C1)C2 [Compound I-290]	1000 to 10000
COCCOc1ccc(-n2ncc3c(=O)n(CC4(O)CCN(C(=O)c5ccc(F)cc5)CC4)cnc32)cc1 [Compound I-1363]	1000 to 10000
NC(=O)COc1ccc(-n2ncc3c(=O)n(CC4(O)CCN(C(=O)c5ccc(F)cc5)CC4)cnc32)cc1 [Compound I-1307]	1000 to 10000
C[C@@H](CC(=O)N1CCC(O)(Cn2cnc3c(cnn3-c3ccc(-c4ccc(F)cc4)cc3)c2=O)CC1)n1cccn1 [Compound I-654]	> 10000
O=C(c1ccc(F)cc1)N1CCC(O)(Cn2cnc3c(cnn3-c3ccccc3)c2=O)CC1 [Compound I-190]	200 to 1000
CN1CCCC(CNc2cccc(-n3ncc4c(=O)n(CC5(O)CCN(C(=O)C6CC6)CC5)cnc43)c2)C1 (stereo not drawn) [Compound I-1197]	200 to 1000
Cc1oncc1S(=O)(=O)Nc1cccc(-n2ncc3c(=O)n(CC4(O)CCN(C(=O)C5CC5)CC4)cnc32)c1 [Compound I-1400]	1000 to 10000
O=C(C1CC1)N1CCC(O)(Cn2cnc3c(cnn3-c3cccc(-c4cccc(Cl)c4)c3)c2=O)CC1 [Compound I-347]	1000 to 10000
C[C@@H](CC(=O)N1CCC(O)(Cn2cnc3c(cnn3-c3ccc(F)cc3)c2=O)CC1)N1CC2CCCC2C1 (stereo partly drawn) [Compound I-524]	1000 to 10000
N#CCOc1ccc(-n2ncc3c(=O)n(CC4(O)CCN(C(=O)c5ccc(F)cc5)CC4)cnc32)cc1 [Compound I-1320]	1000 to 10000

Structure (SMILES)	IC50 [nM]
CN1CCN(c2ccc(-n3ncc4c(=O)n(CC5(O)CCN(C(=O)c6ccccc6)CC5)cnc43)cc2F)CC1 [Compound I-970]	1000 to 10000
Cc1ccc(-n2ncc3c(=O)n(CC4(O)CCN(C(=O)c5cnc(C)o5)CC4)cnc32)cc1 [Compound I-1514]	200 to 1000
CN1CCCCC1COc1cccc(-n2ncc3c(=O)n(CC4(O)CCN(C(=O)c5ccc(F)cc5)CC4)cnc32)c1 (stereo not drawn) [Compound I-1314]	200 to 1000
CC(F)(F)c1ccc(C(=O)N2CCC(O)(Cn3cnc4c(cnn4-c4ccccc4)c3=O)CC2)cc1 [Compound I-294]	1000 to 10000
CN(C)C(=O)Nc1ccc(-n2ncc3c(=O)n(CC4(O)CCN(C(=O)c5ccc(F)cc5)CC4)cnc32)cc1 [Compound I-1576]	1000 to 10000
O=C(c1ccc(F)cc1)N1CCC(O)(Cn2cnc3c(cnn3-c3ccc(F)c(N4CCOCC4)c3)c2=O)CC1 [Compound I-639]	1000 to 10000
CC(CC(=O)N1CCC(O)(Cn2cnc3c(cnn3-c3ccc(-c4ccccc4)cc3)c2=O)CC1)n1cccn1 (stereo not drawn) [Compound I-648]	1000 to 10000
Cc1cc(C(=O)N2CCC(O)(Cn3cnc4c(cnn4-c4ccccc4)c3=O)CC2)nn1C [Compound I-229]	1000 to 10000
N#CC1CCN(Cc2cccc(-n3ncc4c(=O)n(CC5(O)CCN(C(=O)C6CC6)CC5)cnc43)c2)CC1 [Compound I-446]	1000 to 10000
CN(C)C(=O)N1CCC(O)(Cn2cnc3c(cnn3-c3ccc(Oc4ccccc4)cc3)c2=O)CC1 [Compound I-500]	> 10000
Cc1nc(C)c(C(=O)N2CCC(O)(Cn3cnc4c(cnn4-c4ccccc4)c3=O)CC2)s1 [Compound I-230]	1000 to 10000
O=C(c1ccc(F)cc1)N1CCC(O)(Cn2cnc3c(cnn3-c3ccc(F)c(N4CCNCC4)c3)c2=O)CC1 [Compound I-824]	200 to 1000
CN(C)C1CCN(C(=O)c2ccc(-n3ncc4c(=O)n(CC5(O)CCN(C(=O)C6CC6)CC5)cnc43)cc2)CC1 [Compound I-1496]	1000 to 10000
O=C(c1ccc(F)cc1)N1CCC(O)(Cn2cnc3c(cnn3-c3ccc(F)cc3)c2=O)CC1 [Compound I-268]	1000 to 10000
C=CC(=O)N1CCC1C(=O)N1CCC(O)(Cn2cnc3c(cnn3-c3ccc(-c4ccccc4)cc3)c2=O)CC1 (stereo not drawn) [Compound I-657]	200 to 1000
Cn1ncc2c(=O)n(CC3(O)CCN(C(=O)C[C@@H](c4ccccc4)C(F)(F)F)CC3)cnc21 [Compound I-861]	> 10000
CN(C)C(=O)N1CCC(O)(Cn2cnc3c(cnn3-c3cccc(-n4cc(Cl)cn4)c3)c2=O)CC1 [Compound I-1666]	> 10000
